Laboratory results from patent publication US20210214354A1, “IMIDAZOQUINOLINE COMPOUNDS AND USES THEREOF” (Birdie Biopharmaceuticals, Inc., priority 2018, published 2021).
Read-outs that look alike come from different tables or passages of the source.

Key:
hTLR7 = target: T1, hTLR7 (Homo sapiens, UniProt Q9NYK1); experiment: TLR7/8 agonist potency assay in HEK-Blue hTLR7 cells (SEAP reporter); format: cell-based; settings: about 16 hrs incubation, SEAP at 635 nm; for EC50: read-out: TLR7 Agonistic EC50 (converted)
T1 construct: expressed in transfected cells; host or cells: HEK-Blue hTLR7 cells (HEK293-derived SEAP reporter line; own knowledge: commercial line stably transfected with the human TLR7 gene)
T1 sequence (Q9NYK1 27-1049): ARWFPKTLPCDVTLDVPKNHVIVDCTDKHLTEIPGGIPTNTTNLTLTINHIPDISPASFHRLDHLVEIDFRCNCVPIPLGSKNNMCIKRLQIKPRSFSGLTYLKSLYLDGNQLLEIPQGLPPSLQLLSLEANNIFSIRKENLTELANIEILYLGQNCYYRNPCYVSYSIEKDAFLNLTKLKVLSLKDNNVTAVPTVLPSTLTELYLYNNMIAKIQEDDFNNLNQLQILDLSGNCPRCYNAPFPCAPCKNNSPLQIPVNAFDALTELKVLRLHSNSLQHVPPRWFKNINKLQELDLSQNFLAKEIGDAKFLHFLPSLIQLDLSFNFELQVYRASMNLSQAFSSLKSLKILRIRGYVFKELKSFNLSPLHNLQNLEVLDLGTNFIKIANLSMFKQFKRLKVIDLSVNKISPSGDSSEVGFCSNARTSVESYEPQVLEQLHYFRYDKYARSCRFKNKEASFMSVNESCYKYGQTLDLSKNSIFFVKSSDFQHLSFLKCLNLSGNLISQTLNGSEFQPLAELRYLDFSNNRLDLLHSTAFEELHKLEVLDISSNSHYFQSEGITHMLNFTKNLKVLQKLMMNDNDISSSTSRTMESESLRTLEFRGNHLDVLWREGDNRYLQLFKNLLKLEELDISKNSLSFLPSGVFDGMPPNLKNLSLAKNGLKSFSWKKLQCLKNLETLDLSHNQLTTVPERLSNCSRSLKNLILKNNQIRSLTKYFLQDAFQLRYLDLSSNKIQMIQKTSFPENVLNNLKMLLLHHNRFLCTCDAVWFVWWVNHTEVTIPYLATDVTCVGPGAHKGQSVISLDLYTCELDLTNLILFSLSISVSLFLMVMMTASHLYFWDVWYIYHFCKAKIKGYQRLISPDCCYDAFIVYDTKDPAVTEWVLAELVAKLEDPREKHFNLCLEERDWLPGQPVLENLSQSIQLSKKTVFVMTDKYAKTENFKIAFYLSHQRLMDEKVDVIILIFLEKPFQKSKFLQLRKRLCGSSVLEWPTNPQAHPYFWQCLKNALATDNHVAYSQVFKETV
Protocol: (§1) HEK-Blue TLR7 cells can serve to measure the bioactivity of TLR7 through the secretion of embryonic alkalinephosphatase (SEAP) upon NF-κB activation following TLR7 stimulation. Water was used as negative control. After about 16 hrs incubation at 37° C. in 5% CO2, the SEAP was determined by using a spectrophotometer at 635 nm.
(§2) The dose-response curves were fit with four parameter logistic curve (SigmaPlot, version 9.0).

hTLR8 = target: T2, hTLR8 (Homo sapiens, UniProt Q9NR97); experiment: TLR7/8 agonist potency assay in HEK-Blue hTLR8 cells (SEAP reporter); format: cell-based; settings: about 16 hrs incubation, SEAP at 635 nm, read-out: TLR8 Agonistic EC50 (converted)
T2 construct: expressed in transfected cells; host or cells: HEK-Blue hTLR8 cells (HEK293-derived SEAP reporter line; own knowledge: commercial line stably transfected with the human TLR8 gene)
T2 sequence (Q9NR97 27-1041): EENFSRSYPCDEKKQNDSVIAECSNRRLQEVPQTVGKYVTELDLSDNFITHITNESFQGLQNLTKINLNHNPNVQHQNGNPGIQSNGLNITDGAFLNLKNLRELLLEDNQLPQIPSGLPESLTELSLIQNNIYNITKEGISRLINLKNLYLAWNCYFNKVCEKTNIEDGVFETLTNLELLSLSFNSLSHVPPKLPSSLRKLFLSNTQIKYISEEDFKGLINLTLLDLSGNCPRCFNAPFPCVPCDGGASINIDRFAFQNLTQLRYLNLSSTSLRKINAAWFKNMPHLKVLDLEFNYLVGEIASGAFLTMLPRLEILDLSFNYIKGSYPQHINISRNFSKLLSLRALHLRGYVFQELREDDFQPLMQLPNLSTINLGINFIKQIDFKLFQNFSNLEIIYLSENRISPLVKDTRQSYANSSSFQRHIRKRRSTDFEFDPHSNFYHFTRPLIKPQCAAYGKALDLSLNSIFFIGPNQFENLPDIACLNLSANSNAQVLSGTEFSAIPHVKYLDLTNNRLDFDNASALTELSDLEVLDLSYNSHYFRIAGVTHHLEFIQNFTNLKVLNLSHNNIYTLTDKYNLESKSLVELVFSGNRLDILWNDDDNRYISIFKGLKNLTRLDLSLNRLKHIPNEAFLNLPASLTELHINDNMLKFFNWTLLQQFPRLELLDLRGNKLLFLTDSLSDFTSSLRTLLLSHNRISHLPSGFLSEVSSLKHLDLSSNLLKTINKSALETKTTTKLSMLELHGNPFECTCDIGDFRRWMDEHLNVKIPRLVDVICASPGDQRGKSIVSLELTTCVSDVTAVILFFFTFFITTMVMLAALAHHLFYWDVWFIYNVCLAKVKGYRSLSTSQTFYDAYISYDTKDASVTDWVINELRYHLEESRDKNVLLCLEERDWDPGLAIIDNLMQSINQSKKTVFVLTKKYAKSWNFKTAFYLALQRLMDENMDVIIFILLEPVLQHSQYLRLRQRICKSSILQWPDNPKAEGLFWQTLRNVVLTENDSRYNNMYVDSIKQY
Protocol: as §1, with “HEK-Blue hTLR8” for “HEK-Blue TLR7”, “of TLR8” for “of TLR7”, “embryonic alkaline phosphatase” for “embryonic alkalinephosphatase”, “following TLR8” for “following TLR7”
as §2

[1] = TLR7/8 agonist PK study in SD rats (i.v.); settings: 0.08 mg/kg, plasma; for MTRinf: SD rats, i.v.; for AUC(0-inf) / AUC(0-t) / C0 / MRT last / Vd / clearance / half-life: both, Sprague-Dawley (SD), rat, iv
Protocol: (§3) SPF SD rats were purchased from BioLASCO Taiwan Co. Ltd. Animals were randomly assigned to five groups with 3 males and 3 females in each group before dosing. The body weight variation of animals used were in an interval within ±20 percent of the mean weight for each gender.
(§4) Blood samples (200-350 μL/time point) were obtained through tail vein at pre-dose and 2 min, 5 min, 15 min, 30 min, 1 hr, 2 hr, 4 hr, 6 hr, 8 hr, 12 hr and 24 hr post dosing. The blood samples were collected into tubes containing K2EDTA and maintained on ice no more than 30 minutes, then centrifuged (1500-1750 xg, 15 min, 2-8° C.) for plasma harvest.
(§5) The study samples were prepared and analyzed in parallel using liquid chromatography-tandem mass spectrometry. In pharmacokinetics evaluation following the determined concentrations in rat plasma, pharmacokinetic parameters were calculated using WinNonlin (Pharsight Corporation, version 6.3) with non-compartmental methods.

[2] = both, Sprague-Dawley (SD), rat, in vivo, iv, 0.08 mg/kg
Protocol: as §3, §4, §5

in vivo = settings: both, Sprague-Dawley (SD), rat, iv, 0.08 mg/kg
Protocol: as §3, §4, §5

| SMILES | EC50 (hTLR7) [nM] | EC50 (hTLR8) [nM] | MTRinf [1] [h] | AUC(0-inf) [1] [ng·h/mL] | AUC(0-t) [1] [ng·h/mL] | C0 [1] [ng/mL] | MRT last [1] [h] | Vd [1] [L/kg] | clearance [1] [mL/min/kg] | half-life [1] [h] | further results |
| --- | --- | --- | --- | --- | --- | --- | --- | --- | --- | --- | --- |
| CCCCNc1nc(N)c2[nH]c(=O)n(Cc3ccc(C(=O)NCC(=O)O)cc3)c2n1 [CL264, reference compound] |  |  |  |  |  |  |  |  |  |  | TLR7 Agonistic EC50 (hTLR7): 0.2602 ± 0.0124 µg/mL |
| CC(C)(O)Cn1c(COCC(F)(F)F)nc2c(N)nc3ccccc3c21 [Compound 2] | 98.3 | 1600 |  |  |  |  |  |  |  |  |  |
| CC(C)(O)Cn1c(COC2CC2)nc2c(N)nc3ccccc3c21 [Compound 3] | 124 | 1580 | 4.90 ± 0.87 | 124 ± 9.96 | 118 ± 8.92 | 237 ± 44.2 | 3.15 ± 0.18 | 3.13 | 11.9 | 7.53 ± 1.03 |  |
| CCSCc1nc2c(N)nc3ccccc3c2n1CC(C)(C)O [Compound 4] |  |  | 3.87 ± 1.20 | 66.2 ± 4.81 | 62.5 ± 4.49 | 258 ± 47.6 | 1.87 ± 0.16 | 4.67 | 21.6 | 8.46 ± 1.72 |  |
| CCS(=O)(=O)Cc1nc2c(N)nc3ccccc3c2n1CC(C)(C)O [Compound 6] |  |  | 1.71 ± 0.22 | 82.8 ± 8.29 | 81.6 ± 8.49 | 224 ± 53.9 | 1.28 ± 0.19 | 1.82 | 17.1 | 6.46 ± 1.01 |  |
| CCOCc1nc2c(N)nc3ccccc3c2n1CC(C)(C)O [Resiquimod] |  |  |  |  |  |  |  |  |  |  | MTRinf [2]: 3.87 ± 1.20 h; AUC(0-inf) (in vivo): 66.2 ± 4.81 ng·h/mL; AUC(0-t) (in vivo): 62.5 ± 4.49 ng·h/mL; C0 (in vivo): 258 ± 47.6 ng/mL; MRT last (in vivo): 1.87 ± 0.16 h; Vd (in vivo): 4.67 L/kg; clearance (in vivo): 21.6 mL/min/kg; half-life (in vivo): 8.46 ± 1.72 h |
